Measured values reported in PubChem BioAssay AID1963853 (Molecular Pharmacology Branch, DTP, NCI, 2024).
“And” between values parts separate entries of the source, which are not always exact repeats. Equal entries are not always repeated.

System: 266295-075-R-J1-PDC spheroid viability
Assay: Anticancer human tumor 266295-075-R-J1-PDC patient-derived head and neck squamous carcinoma cell line growth inhibition [POLQ]
Details: spheroids with HUVEC and MSC; for viability, T/C: stronger effect = lower value
Method: Multicellular complex tumor spheroid response to Polymerase (POL) inhibitors (novobiocin, ART-558, RP6685) in combination with a variety of drugs and investigational agents in selected tumor cell lines
The POL inhibitors (novobiocin, ART-558, and RP6685) were evaluated both individually and in combination with standard of care and investigational anticancer small molecules within a complex spheroid model of solid tumors. . Complex spheroids include a stromal component modeled by human endothelial cells (HUVEC) and fibroblasts modeled by human mesenchymal stem cells (MSCs). The concentration ranges selected for each drug and investigational agent were based upon clinically achievable concentrations if the clinical Cmax of the agent was known.
Compounds. The drugs and investigational agents: novobiocin (NSC847541), ART-558 (NSC835418), RP-6685 (NSC848927), peposertib (NSC802822), ceralasertib (NSC780249), elimusertib (NSC800525), camonsertib (NSC841442), AZD-1390 (NSC803789), olaparib (NSC753686), talazoparib (NSC767125), rucaparib (NSC756644), sotorasib (NSC818433), MRTX-1133 (NSC836407), SN-38 (NSC673596), topotecan (NSC609699), epotoside (NSC141540), doxorubicin (NSC123127), gemcitabine (NSC613327), 5-fluorouracil (NSC19893), paclitaxel (NSC125973), vemurafenib (NSC761431), MSA-2 (NSC828583), SN-011 (NSC837082), adavosertib (NSC754352), prexasertib (NSC758257), carboplatin (NSC241240) and oxaliplatin (NSC266046), were obtained from the National Cancer Institute (NCI) Developmental Therapeutics Program Chemical Repository (21). The FDA-approved anticancer drug set is available from the Developmental Therapeutics Program at https://dtp.cancer.gov/organization/dscb/obtaining/. […] The stock solutions were prepared in dimethyl sulfoxide (DMSO, Sigma-Aldrich, St. Louis, MO, cat. D2650), except for the platinum compounds which were prepared in saline (Quality Biological, Gaithersburg, MD, cat. 114-055-101), at 800-fold the tested concentration and stored at -70 degrees C prior to their use. All drugs and investigational agents were tested over a range starting from a high concentration at or near the clinical Cmax and decreasing in half-log increments. If the clinical Cmax for an agent had not been determined, the highest concentration tested was 10 microM, except for SN-38, which was tested at a high concentration of 1 microM.
Cell Culture. All cells were maintained in an incubator at 37 degrees C and 5% CO2 with 95% humidity. The PDC lines were cultured according to standard operating procedures established by the NCI PDMR (https://pdmr.cancer.gov). Table 3 of the manuscript, lists the cell lines along with the number of the three cell types plated to form the mct-spheroids and media for tumor cell growth. After thawing, all PDC lines, except 997537-175-T-J1-PDC and 415267-285-R-J2-PDC, were cultured in Matrigel-coated flasks prepared with a working solution of 1X Ham's F-12 nutrient mix, without supplementation (Thermo Fisher Scientific, cat. 11765054), 100 U/mL penicillin-streptomycin (Thermo Fisher Scientific, cat. 15140122), and 2.5% Matrigel (Corning Inc., Corning, NY, cat. 354248) for the first three passages. The two PDC lines 997537-175-T-J1-PDC and 415267-285-R-J2-PDC were cultured on uncoated flasks. The 857933-349-R-J2-PDC line was cultured in 6C/Colon 1B media containing advanced DMEM/F-12 (Thermo Fisher Scientific, cat. 12634028), 10 mM HEPES (Thermo Fisher Scientific, cat. 15630080), 1X GlutaMAX supplement (Thermo Fisher Scientific, cat. 35050061), 0.1 mg/mL primocin (InvivoGen, San Diego, CA, cat. ant-pm-2), 10% defined fetal bovine serum, heat inactivated (HyClone Laboratories Inc., Logan, UT, cat. SH30070.03HI), 50% L-WRN conditioned media (ATCC, cat. CRL-3276), 1.25 mM N-Acetyl-L-cysteine (Sigma-Aldrich, cat. A9165), 10 mM nicotinamide (Sigma-Aldrich, cat. N0636), 1X B-27 supplement (Thermo Fisher Scientific, cat. 17504044), 1X N-2 supplement (Thermo Fisher Scientific, cat. […]

[1] = curve of first compound, second compound 0.0316 µM
[2] = curve of first compound, second compound 0.1 µM
[3] = curve of first compound, second compound 0.316 µM
[4] = curve of first compound, second compound 1 µM
[5] = curve of first compound, second compound 3.16 µM
[6] = curve of first compound, second compound 10 µM
[7] = second compound 0.0316 µM, first compound 0.0316 µM
[8] = second compound 0.0316 µM, first compound 0.1 µM
[9] = second compound 0.0316 µM, first compound 0.316 µM
[10] = second compound 0.0316 µM, first compound 1 µM
[11] = second compound 0.0316 µM, first compound 3.16 µM
[12] = second compound 0.0316 µM, first compound 10 µM
[13] = second compound 0.1 µM, first compound 0.0316 µM
[14] = second compound 0.1 µM, first compound 0.1 µM
[15] = second compound 0.1 µM, first compound 0.316 µM
[16] = second compound 0.1 µM, first compound 1 µM
[17] = second compound 0.1 µM, first compound 3.16 µM
[18] = second compound 0.1 µM, first compound 10 µM
[19] = second compound 0.316 µM, first compound 0.0316 µM
[20] = second compound 0.316 µM, first compound 0.1 µM
[21] = second compound 0.316 µM, first compound 0.316 µM
[22] = second compound 0.316 µM, first compound 1 µM
[23] = second compound 0.316 µM, first compound 3.16 µM
[24] = second compound 0.316 µM, first compound 10 µM
[25] = second compound 1 µM, first compound 0.0316 µM
[26] = second compound 1 µM, first compound 0.1 µM
[27] = second compound 1 µM, first compound 0.316 µM
[28] = second compound 1 µM, first compound 1 µM
[29] = second compound 1 µM, first compound 3.16 µM
[30] = second compound 1 µM, first compound 10 µM
[31] = second compound 3.16 µM, first compound 0.0316 µM
[32] = second compound 3.16 µM, first compound 0.1 µM
[33] = second compound 3.16 µM, first compound 0.316 µM
[34] = second compound 3.16 µM, first compound 1 µM
[35] = second compound 3.16 µM, first compound 3.16 µM
[36] = second compound 3.16 µM, first compound 10 µM
[37] = second compound 10 µM, first compound 0.0316 µM
[38] = second compound 10 µM, first compound 0.1 µM
[39] = second compound 10 µM, first compound 0.316 µM
[40] = second compound 10 µM, first compound 1 µM
[41] = second compound 10 µM, first compound 3.16 µM
[42] = second compound 10 µM, first compound 10 µM
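Note: spheroids exposed to compounds for seven days before readout.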

Compound: CC1COCCN1c1cc(C2(O)CC3CCC(C2)O3)c2cnn(-c3ccn[nH]3)c2n1 (stereo unspecified) + COC1C(OC(N)=O)C(O)C(Oc2ccc3c(O)c(NC(=O)c4ccc(O)c(CC=C(C)C)c4)c(=O)oc3c2C)OC1(C)C
- IC50 [1]: 1130 nM
- IC50 [2]: 1290 nM
- IC50 [3]: 1050 nM
- IC50 [4]: 921 nM
- IC50 [5]: 898 nM
- IC50 [6]: 903 nM
- viability, T/C [7]: 84.7%
- viability, T/C [8]: 79.8%
- viability, T/C [9]: 65.6%
- viability, T/C [10]: 52.8%
- viability, T/C [11]: 36.9%
- viability, T/C [12]: 29.8%
- viability, T/C [13]: 92%
- viability, T/C [14]: 80.8%
- viability, T/C [15]: 62.7%
- viability, T/C [16]: 51.5%
- viability, T/C [17]: 44.6%
- viability, T/C [18]: 26.8%
- viability, T/C [19]: 103%
- viability, T/C [20]: 69.5%
- viability, T/C [21]: 64.8%
- viability, T/C [22]: 56.1%
- viability, T/C [23]: 43.2%
- viability, T/C [24]: 30.4%
- viability, T/C [25]: 87.2%
- viability, T/C [26]: 73.3%
- viability, T/C [27]: 75.3%
- viability, T/C [28]: 46.8%
- viability, T/C [29]: 41.7%
- viability, T/C [30]: 34.4%
- viability, T/C [31]: 84.2%
- viability, T/C [32]: 74.7%
- viability, T/C [33]: 57%
- viability, T/C [34]: 48.2%
- viability, T/C [35]: 42.9%
- viability, T/C [36]: 31%
- viability, T/C [37]: 81.2%
- viability, T/C [38]: 81.9%
- viability, T/C [39]: 63.2%
- viability, T/C [40]: 49.4%
- viability, T/C [41]: 39.3%
- viability, T/C [42]: 34.2%

Compound: CCc1cc2c(N3CCc4c(cc(Cn5ccnc5)cc4-c4cn(C)nc4C(F)(F)F)C3=O)cc(C)nc2c(OC)n1 + COC1C(OC(N)=O)C(O)C(Oc2ccc3c(O)c(NC(=O)c4ccc(O)c(CC=C(C)C)c4)c(=O)oc3c2C)OC1(C)C
- IC50 [1]: > 10000 nM
- IC50 [2]: > 10000 nM
- IC50 [3]: > 10000 nM
- IC50 [4]: > 10000 nM
- IC50 [5]: > 10000 nM
- IC50 [6]: > 10000 nM
- viability, T/C [7]: 112%
- viability, T/C [8]: 101%
- viability, T/C [9]: 114%
- viability, T/C [10]: 108%
- viability, T/C [11]: 134%
- viability, T/C [12]: 148%
- viability, T/C [13]: 105%
- viability, T/C [14]: 102%
- viability, T/C [15]: 93.8%
- viability, T/C [16]: 121%
- viability, T/C [17]: 134%
- viability, T/C [18]: 157%
- viability, T/C [19]: 85.9%
- viability, T/C [20]: 94.2%
- viability, T/C [21]: 118%
- viability, T/C [22]: 107%
- viability, T/C [23]: 125%
- viability, T/C [24]: 163%
- viability, T/C [25]: 75.3%
- viability, T/C [26]: 92.8%
- viability, T/C [27]: 102%
- viability, T/C [28]: 115%
- viability, T/C [29]: 145%
- viability, T/C [30]: 128%
- viability, T/C [31]: 106%
- viability, T/C [32]: 95.7%
- viability, T/C [33]: 108%
- viability, T/C [34]: 113%
- viability, T/C [35]: 126%
- viability, T/C [36]: 147%
- viability, T/C [37]: 98.6%
- viability, T/C [38]: 83.8%
- viability, T/C [39]: 82.7%
- viability, T/C [40]: 120%
- viability, T/C [41]: 119%
- viability, T/C [42]: 154%

Compound: CNCc1ccc(-c2[nH]c3cc(F)cc4c3c2CCNC4=O)cc1
- viability, T/C (compound 0.0316 µM): 105% and 77.3% and 89.9%
- viability, T/C (compound 0.1 µM): 102% and 92.1% and 96.7%
- viability, T/C (compound 0.316 µM): 107% and 102% and 87.6%
- viability, T/C (compound 1 µM): 91.4% and 94% and 99.2%
- viability, T/C (compound 3.16 µM): 110% and 105% and 106%
- viability, T/C (compound 10 µM): 91.8% and 123% and 105%
- IC50 (curve of compound): > 10000 nM
